Columns and labels:
[1] = test system: VEGF/VEGFR2 complex; experiment: Western blot, phosphorylation of VEGF/VEGFR2 in HUVECs; type: cell-based, human; conditions: VEGF 10 ng/mL
Procedure: (§1) In light of the investigation above, we further evaluated the anti-VEGF efficacy of RE-1 in cell studies. VEGFR2 was previously identified as the main receptor of VEGF protein. […] ERK1/2, a downstream signal factor, was subsequently stimulated and phosphorylated after the activation of VEGFR2 [17].
(A) VEGF was added at a concentration of 10 ng/mL, and avastin at 200 µg/mL was employed as the positive control. (B) The intensities of each band were quantified and analyzed with software Image Lab (6.1 version). Values were calculated as the percentage of changes compared with blank control (only medium), in mean ± SD, n = 4. * p < 0.05; compared with the control group.
(§2) HUVECs were seeded onto 12-well plates at a density of 1.5 × 10^4 cells/mL and subjected to serum starvation with a serum-free medium overnight. After treatment with various samples, the cells were directly lysed with 200 μL 2× sodium dodecyl sulfate polyacrylamide gel electrophoresis (SDS-PAGE) lysis buffer (100 mM Tris-Cl, pH 6.8, 8% SDS, 0.2% bromophenol blue, 20% glycerol, 400 mM β-mercaptoethanol). The lysates were obtained and denatured at 85 °C for 15 min. Afterwards, the samples were subjected to SDS-PAGE in a 10% gel. Then, 5% skim milk in Tris-buffered saline of pH 7.4 with 0.1% Tween-20 (as TBST) was used for blocking. […] The intensities of each band were quantified and analyzed with software Image Lab.

[2] = test system: HUVECs; experiment: VEGF-induced cell proliferation (MTT); type: cell-based, human; conditions: VEGF 10 ng/mL, 48 h, 0.1-10 µM
Procedure: (§3) VEGF has been reported as a crucial mediator in human umbilical vein endothelial cells (HUVECs).
HUVECs were incubated in the presence of VEGF (10 ng/mL) with or without drug treatments for 48 h. […] The absorbance of the samples at 570 nm was measured using a microplate reader (Thermo Fisher Scientific, Waltham, MA, USA). * p < 0.05; ** p < 0.01; compared with the control group.
First, 5 × 10^4 cells/mL […] cells were seeded on a 96-well plate. After 24 h incubation, 100 μL VEGF at a concentration of 10 ng/mL with various concentrations of analytes were added to the mixture, followed by the addition of 10 μL of MTT solution (5 mg/mL). Th blank group was set up without any drug treatments, while avastin was utilized as a positive control. The mixture was incubated at 37 °C for 4 h before 150 μL DMSO was employed to dissolve formazan salt formed during the reaction. The sample was collected and read under a microplate reader (Thermo Fisher Scientific) at a wavelength of 570 nm. Proliferation values were calculated as follows: cell proliferation (%) = (experimental value − background value)/(blank value − background value) × 100%.

[3] = Caco-2 transepithelial permeability assay; type: in vitro ADME; conditions: human; for Papp at 0.3 µM: Caco-2, sample tested at 0.3 µM; for Papp at 3 µM: Caco-2, sample tested at 3 µM
[4] = test system: HaCaT cells; experiment: MTT cell viability (toxicity) in HaCaT cells; type: cell-based, human; conditions: concentrations up to 100 µM
[5] = test system: HaCaT cells; experiment: VEGF-mediated intracellular ROS formation (DCFH-DA); type: cell-based, human; conditions: 0.3 to 3 µM
Procedure: VEGF acts as an inducer in reactive oxygen species (ROS) formation; such an interaction plays an essential role in the activation of VEGFR2-mediated pathways and downstream cell migration.
Figure 7 RE-1 attenuates VEGF-mediated ROS formation in HaCaT cells. (A) HaCaT cells were seeded onto coverslips and mounted with Prolong Gold Antifade Reagent with DAPI. Pictures of cells were captured with confocal microscopy Leica SP8 (Leica, Germany). (B) The intensities of fluorescent signals by DCFH-DA were quantified using the software Leica Application Suite (LAS, 4.12 version) X. Values were calculated as percentage of changes compared with the blank control (only medium), in mean ± SD, n = 4. * p < 0.05; compared with the control group.
Intracellular ROS accumulation was measured with a fluorescent ROS indicator DCFH-DA. Procedures were conducted as described previously. In brief, HaCaT cells were seeded onto coverslips at a density of 1 × 10^5 cells/mL. Following drug treatments, a DCFH-DA probe diluted in serum-free medium at 20 μM was introduced to the cells. The cells were incubated with DCFH-DA for 20 min in a 37 °C incubator. PBS wash was followed to rinse off the residual DCFH-DA. Following this, the cells were fixed with 4% paraformaldehyde (PFA) in PBS for 15 min at room temperature. The PFA was washed off with a PBS wash twice. Coverslips with fixed cells were mounted with Prolong Gold Antifade Reagent with DAPI (Cell Signalling Technology, Boston, MA, USA). Pictures of cells were captured with confocal microscopy Leica SP8 system at 20× magnification (Leica, Wetzlar, Germany). The intensities of fluorescent signals by DCFH-DA were determined through the software Leica Application Suite (LAS) X (Leica Microsystems, Wetzlar, Germany).

[6] = test system: ERK1/2; experiment: Western blot, phosphorylation of downstream ERK1/2 in HUVECs; type: cell-based, human; conditions: in the presence of VEGF
Excerpt: as §1
(A) Cell treatment was the same as in Figure 3. […] Antibodies in use included: anti-rabbit phospho-p44/42 MAPK, anti-rabbit p44/42 MAPK (CST), and anti-rabbit horseradish peroxidase (HRP) secondary antibody. (B) The intensities of each band were quantified and analyzed with the software Image Lab. Values were calculated as percentage of changes compared with a blank control (only medium), in mean ± SD, n = 4. * p < 0.05; compared with the control group.
as §2, with “gel.” for “gel. Then, 5% skim milk in Tris-buffered saline of pH 7.4 with 0.1% Tween-20 (as TBST) was used for blocking.”

[7] = Stability test by HPLC (intra- and inter-day variability); type: physicochemical; conditions: for Intra-day RSD: n = 6; for Intra-day Mean Peak Area: n = 6, HPLC 210 nm; for Inter-day Mean Peak Area / Inter-day RSD: n = 6, five successive days
[8] = target: T1, VEGF protein (Homo sapiens, UniProt P15692); experiment: Ultrafiltration binding assay with HPLC quantification; conditions: ultrafiltration in presence and absence of VEGF protein
T1 sequence (P15692 1-191 isoform P15692-4): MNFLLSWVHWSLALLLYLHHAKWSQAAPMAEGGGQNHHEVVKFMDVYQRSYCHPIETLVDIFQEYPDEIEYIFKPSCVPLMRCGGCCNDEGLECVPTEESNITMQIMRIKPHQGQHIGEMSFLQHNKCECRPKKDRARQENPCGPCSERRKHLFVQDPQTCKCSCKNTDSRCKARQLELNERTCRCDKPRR

[9] = target: T2, VEGF165 protein (Homo sapiens, UniProt P15692); experiment: SPR binding affinity assay (Biacore T200); conditions: immobilized VEGF165, analytes 1 to 30 µM, estimated, read-out: dissociation constant (Kd)
T2 sequence (P15692 1-191 isoform P15692-4): T1 sequence (P15692 1-191 isoform P15692-4)
Procedure: In parallel, an ultrafiltration assay was conducted in the presence and absence of VEGF protein (Figure 2A). […] Subsequently, SPR investigation was performed using Biacore T200 (Cytiva, Washington, DC, USA) to detect the binding affinities of RE-1 to the targeted protein. […] When the binding activities between analytes and the protein were detected, response units (RUs) could be calculated and obtained accordingly.
Binding affinities between analytes and VEGF protein were determined using a Biacore T200 (Cytiva, Washington, DC, USA) with a GE Series dextran-coated (CM5) sensor chip. Specifically, the HBS-T mixture (150 mM NaCl, 10 mM Hepes, 0.05% polysorbate 20, 3.4 mM EDTA, 5% DMSO, pH 7.4) was selected as the operating buffer at 25 °C. The immobilizing VEGF protein was covalently placed onto the chip at the sensor surface through amide coupling reagent—EDC/NHS {1-ethyl-3-[3-(dimethylamino) propyl]carbodiimide hydrochloride)/N-hydroxysuccinimide}. Following surface activation, the VEGF protein was dissolved using a coupling buffer (0.1 M acetate buffer, pH 4.5) and placed at the surface of the sensor chip, until the RU (resonance unit) signal of the VEGF protein was detected and reached 6500 RU. To remove unreacted VEGF protein, the chip was washed and subsequently reacted with 10 mM glycine-HCl at pH 1.5. […] Data were further analyzed utilizing GE Biacore T200 control software.

[10] = test system: HUVECs; experiment: MTT cell viability (toxicity) in HUVECs; type: cell-based, human; conditions: cultured HUVECs, concentrations up to 100 µM
[11] = test system: HUVECs; experiment: Wound closure assay; type: cell-based, human; conditions: VEGF 10 ng/mL, 0.3 µM to 3 µM, 20 h
Procedure: as §3
Figure 6 RE-1 reduces VEGF-regulated wound recovery in HUVECs. […] (D) Quantification of wound recovery. Values were calculated as percentage of changes compared with the blank control (only medium), in mean ± SD, n = 4. * p < 0.05; ** p < 0.01; compared with the control group.
A wound closure assay was performed on cultured HUVECs to study cell migration in vitro. Procedures were described previously by Guo et al.. Briefly, HUVECs were seeded onto a 12-well plate at a density of 3 × 10^5 cells/well, and treatments were added when the cells grew to full confluence. The cells were washed with PBS and treated with drugs. The photos of each cell scrape at 0 (At0) and 20 h (At20) were captured with a microscope and imaging software (Zen, https://www.zeiss.com/microscopy/en/products/software/zeiss-zen.html, accessed on 19 January 2025) at a 10× magnification. The software TScratch 1.0 (CSE Lab, Zurich, Switzerland) was used to determine the open area of each scrape photo at various timepoints. Quantification of the recovery rate of wound was calculated according to the following equation: Wound closure (%) = (At0 − At20)/[…] × 100%.

Compound	disruption of phosphorylation of VEGF/VEGFR2 [1]	inhibition of VEGF-regulated cell proliferation [2]	Papp at 0.3 µM [3] [×10⁻⁶ cm/s]	Papp at 3 µM [3] [×10⁻⁶ cm/s]	toxicity (apoptosis) in MTT assay [4]	inhibition of VEGF-mediated ROS formation [5]	inhibition of ERK1/2 phosphorylation [6]	Kd [9] [µM]	toxicity (apoptosis) in MTT assay [10]	inhibition of VEGF-regulated wound closure [11]	also measured
COc1cc(/C=C/c2ccc(OCCCn3c4c(c5cc(Br)ccc53)CCCC4n3cccc3)cc2)cc(OC)c1 (centres unmarked) [RE-1]	able to disrupt the phosphorylation and binding activity of VEGF/VEGFR2 complex	significant inhibitory activity	15.8	20.9	no significant apoptosis	better inhibitory performances than resveratrol	found to block ERK1/2 phosphorylation	~8	no significant apoptosis	higher efficacy than resveratrol	Papp ([3]; Caco-2, concentrations from 0.3 µM to 3 µM): 15.8 to 20.9 ×10⁻⁶ cm/s; Intra-day RSD ([7]; acidic solution): 5.84%; Intra-day Mean Peak Area ([7]; acidic solution): 1316.9; Inter-day Mean Peak Area ([7]; acidic solution): 1403.9; Inter-day RSD ([7]; acidic solution): 8.83%; Intra-day RSD ([7]; basic solution): 5.81%; Intra-day Mean Peak Area ([7]; basic solution): 755.8; Inter-day Mean Peak Area ([7]; basic solution): 747.2; Inter-day RSD ([7]; basic solution): 9.35%; Intra-day RSD ([7]; neutral solution): 4.93%; Intra-day Mean Peak Area ([7]; neutral solution): 1002.8; Inter-day Mean Peak Area ([7]; neutral solution): 1046.6; Inter-day RSD ([7]; neutral solution): 9.21%; binding degree to the protein [8]: ~ 32%
Oc1ccc(/C=C/c2cc(O)cc(O)c2)cc1 [resveratrol]	able to disrupt the phosphorylation and binding activity of VEGF/VEGFR2 complex	decent inhibition	15.1	18.2	mild apoptosis at relatively high concentrations	inhibitory effectiveness	found to block ERK1/2 phosphorylation	~12	mild apoptosis at relatively high concentrations	significant inhibitions to wound closure	
avastin: avastin (bevacizumab), positive control against VEGF						able to reduce such an induction					

From paper PMC12155980, “Design, Synthesis, and Biological Evaluations of a Novel Resveratrol-Type Analogue Against VEGF” (Molecules, 2025)
